Structures can show the parent of a compound that is named as a salt. Where two headings read alike, the source gives them in different places.
Assays:
NMDA receptor [1] = biological target: T1, NMDA receptor (Mus musculus, UniProt P35438); test: Maximal electroshock (MES)-induced tonic convulsions; format: in vivo; details: for MES ID50 / ED50: i.p., 15 min before induction; for ED50: mouse, ip, 0.25 h, read-out: MES ID50
T1 construct: from tissue; host or cells: living mice (albino Swiss males for NMDA and PTZ tests, NMR females for MES)
Experimental: To assess NMDA receptor antagonistic properties of the tested agents by assessing anticonvulsive effects. Additionally the role of organic acid transporters in the elimination from the brain of tested agents was assessed by using an inhibitor, Probenicid, on the duration of anticonvulsive activity.
Male albino Swiss mice (19-21 g) housed 10-15 per cage were used for the NMDA lethality test (Leander et al., 1988). For pentylenetetrazol (PTZ)-induced convulsions male albino Swiss mice (25-34 g.) housed 40 per cage (58×38×20 cm) were used while in the maximal electroshock (MES) and motor impairment tests NMR female mice (18-28 g) housed 5 per cage were employed. All animals were kept with water and food ad libittum under a 12-h light-dark cycle (light on at 6 a.m.), and at a controlled temperature (20°±0.5° C.). All experiments were performed between 10 a.m. and 5 p.m. Tested agents were injected 15 min. i.p before the induction of convulsions if not stated otherwise (see below). Mrz 2/502 was dissolved in saline added with NaOH. Most other agents were dissolved in the following solution: 0.606 g Tris; 5.0 g. glucose; 0.5 g. Tween 80; and 95 ml water. The choline and tetramethylammonium salts were dissolved in distilled water.
MES (100 Hz, 0.5 sec shock duration, 50 mA shock intensity, 0.9 ms impulse duration, Ugo Basile) was applied through corneal electrodes. The presence of tonic convulsions was scored (tonic extension of hind paws with minimum angle to the body of 90°). In an additional experiment mice were injected with Probenicid (200 mg/kg) 30 min before administration of the tested agents to assess the role of organic acid transport in elimination (duration of action). The aim was to obtain ED50 s for all parameters scored using the Litchfield Wilcoxon (1949) test for quantal dose responses.

NMDA receptor [2] = biological target: T2, NMDA receptor (Rattus norvegicus, UniProt P35439); test: Patch clamp, inward currents to NMDA in cultured superior colliculus neurones; format: cell-based; details: NMDA 200 μM, glycine 1 μM
T2 construct: endogenous in cells
Experimental: Cells were mechanically dissociated in 0.05% DNAase / 0.3% ovomucoid (Sigma) following a 15 minute pre-incubation with 0.66% trypsin / 0.1% DNAase (Sigma). The dissociated cells were then centrifuged at 18G for 10 minutes, resuspended in minimum essential medium (Gibco) and plated at a density of 200,000 cells cm onto poly-L-lysine (Sigma)-precoated plastic petri dishes (Falcon). The cells were nourished with NaHCO3 /HEPES-buffered minimum essential medium supplemented with 5% foetal calf serum and 5% horse serum (Gibco) and incubated at 37° C. with 5%CO2 at 95% humidity. The medium was exchanged completely following inhibition of further glial mitosis with cytosine-β-D-arabinofuranoside (20 μM Sigma) after about 7 days in vitro. Thereafter the medium was exchanged partially twice weekly. […] Moreover, the relatively small neurones (soma 15-20 μm .phi.) are ideally suited to minimise problems of buffered diffusion for concentration clamp experiments.
Patch clamp recordings were made from these neurones with polished glass electrodes (4-6 m.OMEGA.) in the whole cell mode at room temperature (20°-22° C.) with the aid of an EPC-7 amplifier (List). Test substances were applied by switching channels of a custom made fast superfusion system with a common outflow (10-20 ms exchange times). The contents of the intracellular solution were as follows (mM): CsCl (120), TEACl (20), EGTA (10), MgCl2 (1), CaCl2 (0.2), glucose (10), ATP (2), cAMP (0.25); pH was adjusted to 7.3 with CsOH or HCl. The extracellular solutions had the following basic composition (mM): NaCl (140), KCl (3), CaCl2 (0.2), glucose (10), HEPES (10), sucrose (4.5), tetrodotoxin (TTX 3*10-4). For most experiments glycine (1 μM) was present in all solutions. Experiments to test the glycine-dependence of the tricyclic "pyrido-phtalazin diones" were performed in the continuous presence of increasing concentrations of glycine (1-10 μM).
This effect was mediated at the glycineB site as evidenced by the parallel shift in the concentration-response curves in the presence of increasing glycine concentrations. Thus the Kbs of Mrz 2/502 as assessed according to the Cheng-Prusoff relationship were similar in glycine 1, 3 and 10 μM (80, 124 and 118 nM respectively). […] Choline derivatives had similar potencies to the free acids in vitro (Table14b).

AMPA = test: Microelectrophoretic application of AMPA to spinal neurones in vivo; details: i.v., responses of single rat spinal neurones
Experimental: (§1) The ability of these glycineB antagonists to act as NMDA receptor antagonists in vivo was assessed using i.v. administration against responses of single neurones in the rat spinal cord to microelectrophoretic application of AMPA and NMDA.

[3] = biological target: T3, glycineB site of the NMDA receptor (rat cortical membranes) (Rattus norvegicus, UniProt P35439); test: [3H]5,7-DCKA binding assay; details: 10 nM [3H]5,7-DCKA
T3 construct: The cortex was dissected and homogenised in 20 volumes of ice-cold 0.32M sucrose; from tissue; host or cells: brain cortex membranes of male Sprague-Dawley rats
Experimental: Tissue preparation was performed according to Foster and Wong (1987). Male Sprague-Dawley rats (200-250g) were decapitated and their brains were removed rapidly. The cortex was dissected and homogenised in 20 volumes of ice-cold 0.32M sucrose using a glass-Teflon homogenizer. The homogenate was centrifuged at 1000×g for 10 min. The pellet was discarded and the supernatant centrifuged at 20,000×g for 20 min. The resulting pellet was resuspended in 20 volumes of distilled water and centrifuged for 20 min at 8000×g. Then the supernatant and the buffy coat were centrifuged three times (48,000× g for 20 min) in the presence of 5 mM Tris-HCl, pH 7.4. All centrifugation steps were carried out at 4° C. After resuspension in 5 volumes of 5 mM Tris-HCl, pH 7.4 the membrane suspension was frozen rapidly at -80° C. until the day of assay. On the day of assay the membranes were thawed and washed four times by resuspension in 5 mM Tris-HCl, pH 7.4 and centrifugation at 48,000× g for 20 min. The final pellet was suspended in assay buffer.
The amount of protein in the final membrane preparation was determined according to the method of Lowry (1951) with some modifications (Hartfree, 1972). 50 μl of Protein samples (in triplicates) were diluted to 1 ml with distilled water and treated with 0.9 ml of a solution containing 2 g potassium sodium tartrate and 10 g Na2 CO3 in 500 ml 1N NaOH and 500ml water. Blank and standard (with bovine serum albumin) were set up in the same way. The tubes were placed in a water bath at 50° C. for 10 min. and cooled at room temperature. 100 μl of a solution containing 2 g potassium sodium tartrate and 1 g CuSO4 x 5 H2 O in 90 ml water and 10 ml 1N NaOH were added. The samples were left at room temperature for at least 10 min., then 3 ml of Folin-Ciocalteu reagent (1 ml of reagent diluted with 15 ml water) was added rapidly during mixing. The tubes were again heated at 50° C. for 10 min. and cooled to room temperature. Absorbencies were then read in 1 cm cuvets at 650 nm. The final protein concentration used for our studies was between 100 and 250 μg/ml.
Incubation in both binding assays was terminated using a Millipore filter system. The samples, all in triplicate, were rinsed three times with 2.5 ml ice cold assay buffer over glass fibre filters obtained from Schleicher & Schuell under a constant vacuum. Following separation and rinse the filters were placed into scintillation liquid (5 ml; Ultima Gold) and radioactivity retained on the filters was determined by using conventional liquid scintillation counter (Hewlett Packard, Liquid Scintillation Analyser). `Total binding` was the absolute amount of radioligand bound in the absence of any additives whereas `non-specific` binding was determined in the presence of a high concentration of competitor.
[^3 H]5,7-DCKA binding assay
Experiments were performed according to the methods modified from previous groups (Canton et al., 1991; Yoneda et al., 1993). Membranes were suspended and incubated in 10 mM Tris-HCl, pH 7.4. Incubation time was 45 min at 4° C. Non-specific binding of [^3 H]5,7-DCKA was defined by the addition of unlabeled glycine at 0.1 mM. The stop-solution contained 10 mM Tris-HCl and 10 mM magnesium sulphate, pH 7.4. Filtration was performed as rapidly as possible. Displacement experiments were performed with a fixed [^3 H]5,7-DCKA concentration of 10 nM. Test compounds were diluted in water or DMSO and added in at least 5 different concentrations.

NMDA receptor [4] = biological target: T2, NMDA receptor; test: Microelectrophoretic application of NMDA to spinal neurones in vivo; details: responses of single rat spinal neurones; for ED50: rat, iv, read-out: Microelectrophoretic NMDA ID50
Experimental: as §1

[5] = peak currents, read-out: Peak NMDA IC50
[6] = plateau (steady-state) currents, read-out: Plateau NMDA IC50

With O=c1[nH][nH]c(=O)c2nc3cc(Cl)c(Cl)cc3cc12 [Mrz 2/574] the “MES ID50” value (NMDA receptor [1]; listed as 574, 15 min) was > 100 mg/kg.
In the case of COc1ccc2cc3c(=O)[nH][nH]c(=O)c3nc2c1 [Mrz 2/575], the IC50 (NMDA receptor [2]; [5]) is reported as 94 µM, the IC50 (NMDA receptor [2]; [6]) is reported as 14.5 µM and the ED50 (NMDA receptor [1]) is reported as > 100 mg/kg.
With O=c1[nH]nc(O)c2c1cc1cc(Cl)ccc1[n+]2[O-] [Mrz 2/576, 8-chloro-4-hydroxy-1-oxo-1,2-dihydropyridazino[4,5-b]-quinoline 5-oxide choline salt] the “Microelectrophoretic AMPA ID50” value (AMPA; listed as 576) was > 16.0 mg/kg, the IC50 (NMDA receptor [2]; [5]) was 1.1 µM and the IC50 (NMDA receptor [2]; [6]) was 0.5 µM. The IC50 [3] was 0.45 µM, the “MES ID50” value (NMDA receptor [1]; listed as 576, 15 min) was 7.7 mg/kg and the “Microelectrophoretic NMDA ID50” value (NMDA receptor [4]; i.v., listed as 576) was 2.8 mg/kg.
O=c1[nH]nc(O)c2c1cc1ccccc1[n+]2[O-] [Mrz 2/577, 4-hydroxy-1-oxo-1,2-dihydro-pyridazino[4,5-b]-quinoline 5-oxide choline salt] was tested, and the “Microelectrophoretic AMPA ID50” value (AMPA) was > 32.0 mg/kg, the “MES ID50” value (NMDA receptor [1]; listed as 577, 15 min) was 23.7 mg/kg and the ED50 (NMDA receptor [4]) was 34 mg/kg.
For COc1ccc2c(c1)cc1c(=O)[nH]nc(O)c1[n+]2[O-] [Mrz 2/578], the IC50 (NMDA receptor [2]; [5]) was 101 µM, the IC50 (NMDA receptor [2]; [6]) was 7.7 µM and the ED50 (NMDA receptor [1]) was > 100 mg/kg.
With O=c1[nH][nH]c(=O)c2nc3ccc(Br)cc3cc12 [Mrz 2/586] the “Microelectrophoretic AMPA ID50” value (AMPA) was > 16.0 mg/kg, the IC50 (NMDA receptor [2]; [5]) was 2.2 µM and the “MES ID50” value (NMDA receptor [1]; listed as 586, 15 min) was > 50 mg/kg. For the same molecule, the ED50 (NMDA receptor [4]) was > 16 mg/kg.
For CCCN(CCC)S(=O)(=O)c1ccc(C(=O)O)cc1 [Probenecid, reference compound], the “independent effect on MES-induced convulsions” value (NMDA receptor [1]; 200 mg/kg) was “no independent effect”.

From patent US5776935A, “Pyrido-phtalazin diones and their use against neurological disorders associated with excitotoxicity and malfunctioning of glutamatergic neurotransmission” (Merz & Co. GmbH & Co., priority 1996, dated 1998)
